# Test results published in patent publication US20020137929A1, “1 - (3-heterocyclylphenyl) isothiourea, -isourea, -guanidine and -amidine herbicidal agents” (Intellectual Property Department, BASF Aktiengesellschaft, priority 1998, published 2002).
# How the values were obtained:
# [1] = test system: MOOVA (Monochoria); assay: Postemergence weed control under flooded paddy conditions; type: in vivo, Monochoria vaginalis; conditions: postemergence weeds
# In short: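 Weeds 3 to 5 cm tall and rice seedlings at the 1.5 to 2.5 leaf stage were flooded, with water held 1.5 to 3 cm above the soil. Compounds in 50/50 v/v aqueous/acetone went into the flood water at about 0.0313 to 0.500 kg/ha. Visual 0-9 ratings versus control were made 3 to 4 weeks later.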
# [2] = test system: TRZAWR (Wheat, Winter, cv Riband); assay: Preemergence herbicidal evaluation; type: in vivo, Triticum aestivum; conditions: rated 4-5 weeks after treatment; for TRZAWR rating: preemergence, 0-9 scale
# In short: (§1)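 Seeds were planted in potting soil in cups, then sprayed preemergence with the test compound in aqueous acetone at about 0.0156 to 0.500 kg per hectare. Cups were kept under greenhouse conditions and visually rated 4–5 weeks after treatment on a 0–9 scale against an untreated control.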
# [3] = test system: ORYSAT (Rice, Tebonnet); assay: Preemergence herbicidal evaluation; type: in vivo, Oryza sativa, (L.) Tebonnet; conditions: rated 4-5 weeks after treatment; for ORYSAT rating: preemergence, 0-9 scale
# In short: as §1
# [4] = test system: SAGPY (Arrowhead (Pygmaea)); assay: Preemergence weed control under flooded paddy conditions; type: in vivo, Sagittaria pygmaea; conditions: rated 3-4 weeks after treatment
# In short: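 Visual injury scored 0-9 against control three to four weeks post-treatment, greenhouse-grown. Application: acetone/water (50/50) solutions dosed directly into flood water (1.5-3 cm over silt loam, planted top 0.5 cm), roughly 0.0313 to 0.500 kg/ha active ingredient.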
# [5] = test system: CASOB (Sicklepod); assay: Postemergence herbicidal evaluation; type: in vivo, Cassia obtusifolia; conditions: for CASOB herbicidal rating / herbicidal rating CASOB: postemergence
# In short: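 ~2-wk seedlings; postemergence spray, 40 psi; vehicle 1:1 acetone:water + 0.5% Tween 20; rate ≈0.0156–0.500 kg/ha; greenhouse hold; scored 4–5 wk after treatment, 0–9 scale vs control; repeat tests averaged.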
# [6] = test system: GLXMAW (Soybean, Williams); assay: Preemergence herbicidal evaluation; type: in vivo, Glycine max, (L.) Merr. cv Williams; conditions: rated 4-5 weeks after treatment; for GLXMAW rating: preemergence, 0-9 scale
# In short: as §1
# [7] = Rate 0.0625 kg/ha, rated 3 to 4 weeks after treatment
# [8] = rate 0.1250 kg/ha, 3-4 weeks after treatment
# [9] = rate 0.2500 kg/ha, 3-4 weeks after treatment
# [10] = Rate 0.0313 kg/ha, rated 3 to 4 weeks after treatment
# [11] = Rate 0.1250 kg/ha, rated 3 to 4 weeks after treatment
# [12] = Rate 0.2500 kg/ha, rated 3 to 4 weeks after treatment
structure (smiles),measurement,setting,value
"C#CCOC(=O)CC1SC(=Nc2cc(-n3c(=O)cc(C(F)(F)F)n(C)c3=O)c(F)cc2Cl)N(CC(=O)OCC)C1=O (stereo not shown) [Compound 59, 2-{{2-Chloro-5-[3,6-dihydro-3-methyl-2,6-dioxo-4-(trifluoromethyl)-1(2H)-pyrimidinyl]-4-fluorophenyl}imino}-4-oxo-3,5-thiazolidinediacetic acid, 3-ethyl (2-propynyl) ester]",Herbicidal rating MOOVA,[1]; [7],0.0
same,Herbicidal rating MOOVA,[1]; [8],0.0
same,Herbicidal rating MOOVA,[1]; [9],9.0
same,Preemergence herbicidal rating TRZAWR,[2]; rate 0.0156 kg/ha,0.0
same,Preemergence herbicidal rating TRZAWR,[2]; rate 0.0313 kg/ha,0.0
same,Preemergence herbicidal rating TRZAWR,[2]; rate 0.0625 kg/ha,0.0
same,Preemergence herbicidal rating TRZAWR,[2]; rate 0.1250 kg/ha,2.0
same,Preemergence herbicidal rating TRZAWR,[2]; rate 0.2500 kg/ha,2.0
same,Preemergence herbicidal rating ORYSAT,[3]; rate 0.0156 kg/ha,0.0
same,Preemergence herbicidal rating ORYSAT,[3]; rate 0.0313 kg/ha,0.0
same,Preemergence herbicidal rating ORYSAT,[3]; rate 0.0625 kg/ha,0.5
same,Preemergence herbicidal rating ORYSAT,[3]; rate 0.1250 kg/ha,2.5
same,Preemergence herbicidal rating ORYSAT,[3]; rate 0.2500 kg/ha,3.5
same,Preemergence herbicidal rating ORYSAT,[3]; rate 0.5000 kg/ha,7.0
same,SAGPY herbicidal effect rating,[4]; 0.0625 kg/ha,0.0
same,SAGPY herbicidal effect rating,[4]; 0.1250 kg/ha,0.0
same,SAGPY herbicidal effect rating,[4]; 0.2500 kg/ha,3.0
same,Postemergence herbicidal rating CASOB,[5]; Rate 0.0158 kg/ha,3.0
same,Postemergence herbicidal rating CASOB,[5]; Rate 0.0315 kg/ha,9.0
same,Postemergence herbicidal rating CASOB,[5]; Rate 0.0630 kg/ha,9.0
same,Preemergence herbicidal rating GLXMAW,[6]; rate 0.0156 kg/ha,1.0
same,Preemergence herbicidal rating GLXMAW,[6]; rate 0.0313 kg/ha,0.5
same,Preemergence herbicidal rating GLXMAW,[6]; rate 0.0625 kg/ha,1.0
same,Preemergence herbicidal rating GLXMAW,[6]; rate 0.1250 kg/ha,4.0
same,Preemergence herbicidal rating GLXMAW,[6]; rate 0.2500 kg/ha,7.0
same,Preemergence herbicidal rating GLXMAW,[6]; rate 0.5000 kg/ha,9.0
"C=CCN1C(=O)C(CC(=O)OC(C)C(=O)OCC)SC1=Nc1cc(-n2c(=O)ccn(C)c2=O)c(F)cc1Cl [Compound 94, 3-Allyl-2-{{2-chloro-5-[3,6-dihydro-3-methyl-2,6-dioxo-1(2H)-pyrimidinyl]-4-fluorophenyl}imino}-4-oxo-5-thiazolidineacetic acid, ester with ethyl lactate, (R,S)-]",Herbicidal rating MOOVA,[1]; [10],9.0
same,Herbicidal rating MOOVA,[1]; [7],9.0
same,Herbicidal rating MOOVA,[1]; [11],9.0
same,Herbicidal rating MOOVA,[1]; [12],9.0
same,TRZAWR rating,[2]; 0.0156 kg/ha,0.0
same,TRZAWR rating,[2]; 0.0313 kg/ha,0.0
same,TRZAWR rating,[2]; 0.0625 kg/ha,0.0
same,TRZAWR rating,[2]; 0.1250 kg/ha,0.0
same,TRZAWR rating,[2]; 0.2500 kg/ha,0.0
same,ORYSAT rating,[3]; 0.0156 kg/ha,0.0
same,ORYSAT rating,[3]; 0.0313 kg/ha,0.0
same,ORYSAT rating,[3]; 0.0625 kg/ha,0.0
same,ORYSAT rating,[3]; 0.1250 kg/ha,0.0
same,ORYSAT rating,[3]; 0.2500 kg/ha,3.0
same,SAGPY herbicidal effect rating,[4]; 0.0313 kg/ha,0.0
same,SAGPY herbicidal effect rating,[4]; 0.0625 kg/ha,0.0
same,SAGPY herbicidal effect rating,[4]; 0.1250 kg/ha,5.0
same,SAGPY herbicidal effect rating,[4]; 0.2500 kg/ha,9.0
same,CASOB herbicidal rating,[5]; rate 0.0158 kg/ha,0.0
same,CASOB herbicidal rating,[5]; rate 0.0315 kg/ha,3.0
same,CASOB herbicidal rating,[5]; rate 0.0630 kg/ha,9.0
same,GLXMAW rating,[6]; 0.0156 kg/ha,0.0
same,GLXMAW rating,[6]; 0.0313 kg/ha,0.0
same,GLXMAW rating,[6]; 0.0625 kg/ha,0.0
same,GLXMAW rating,[6]; 0.1250 kg/ha,0.0
same,GLXMAW rating,[6]; 0.2500 kg/ha,4.0
"C=CCN1C(=O)C(CC(N)=O)SC1=Nc1cc(-n2c(=O)cc(C(F)(F)F)n(C)c2=O)c(F)cc1Cl (stereo not shown) [Compound 99, 3-Allyl-2-{{2-chloro-5-[3,6-dihydro-3-methyl-2,6-dioxo-4-(trifluoromethyl)-1(2H)-pyrimidinyl]-4-fluorophenyl}imino}-4-oxo-5-thiazolidineacetamide]",Herbicidal rating MOOVA,[1]; [10],9.0
same,Herbicidal rating MOOVA,[1]; [7],9.0
same,Herbicidal rating MOOVA,[1]; [11],9.0
same,Herbicidal rating MOOVA,[1]; [12],9.0
same,Herbicidal rating MOOVA,"[1]; Rate 0.5000 kg/ha, rated 3 to 4 weeks after treatment",9.0
same,TRZAWR rating,[2]; 0.0156 kg/ha,0.0
same,TRZAWR rating,[2]; 0.0313 kg/ha,0.0
same,TRZAWR rating,[2]; 0.0625 kg/ha,1.0
same,TRZAWR rating,[2]; 0.1250 kg/ha,1.0
same,TRZAWR rating,[2]; 0.2500 kg/ha,4.0
same,TRZAWR rating,[2]; 0.5000 kg/ha,5.0
same,ORYSAT rating,[3]; 0.0156 kg/ha,0.0
same,ORYSAT rating,[3]; 0.0313 kg/ha,0.0
same,ORYSAT rating,[3]; 0.0625 kg/ha,1.0
same,ORYSAT rating,[3]; 0.1250 kg/ha,1.0
same,ORYSAT rating,[3]; 0.2500 kg/ha,4.0
same,ORYSAT rating,[3]; 0.5000 kg/ha,4.0
same,SAGPY herbicidal effect rating,[4]; 0.0313 kg/ha,0.0
same,SAGPY herbicidal effect rating,[4]; 0.0625 kg/ha,0.0
same,SAGPY herbicidal effect rating,[4]; 0.1250 kg/ha,3.0
same,SAGPY herbicidal effect rating,[4]; 0.2500 kg/ha,4.0
same,SAGPY herbicidal effect rating,[4]; 0.5000 kg/ha,4.0
same,herbicidal rating CASOB,[5]; rate 0.0156 kg/ha,4.0
same,herbicidal rating CASOB,[5]; rate 0.0313 kg/ha,7.0
same,CASOB herbicidal rating,[5]; rate 0.0625 kg/ha,8.0
same,CASOB herbicidal rating,[5]; rate 0.1250 kg/ha,9.0
same,GLXMAW rating,[6]; 0.0156 kg/ha,0.0
same,GLXMAW rating,[6]; 0.0313 kg/ha,0.0
same,GLXMAW rating,[6]; 0.0625 kg/ha,3.0
same,GLXMAW rating,[6]; 0.1250 kg/ha,4.0
same,GLXMAW rating,[6]; 0.2500 kg/ha,7.0
same,GLXMAW rating,[6]; 0.5000 kg/ha,7.0
CCC1SC(=Nc2cc(-n3c(=O)cc(C(F)(F)F)n(C)c3=O)c(F)cc2Cl)N(C)C1=O (stereo not shown) [Compound 10],Herbicidal rating MOOVA,"[1]; rate 0.0313 kg/ha, 3-4 weeks after treatment",9.0
same,Herbicidal rating MOOVA,"[1]; rate 0.0625 kg/ha, 3-4 weeks after treatment",9.0
same,Herbicidal rating MOOVA,[1]; [8],9.0
same,Herbicidal rating MOOVA,[1]; [9],9.0
same,TRZAWR preemergence herbicidal rating,[2]; rate 0.0156 kg/ha,1.0
same,TRZAWR preemergence herbicidal rating,[2]; rate 0.0313 kg/ha,3.5
same,TRZAWR preemergence herbicidal rating,[2]; rate 0.0625 kg/ha,5.5
same,TRZAWR preemergence herbicidal rating,[2]; rate 0.1250 kg/ha,6.5
same,TRZAWR preemergence herbicidal rating,[2]; rate 0.2500 kg/ha,7.5
same,ORYSAT preemergence herbicidal rating,[3]; rate 0.0156 kg/ha,1.0
same,ORYSAT preemergence herbicidal rating,[3]; rate 0.0313 kg/ha,3.0
same,ORYSAT preemergence herbicidal rating,[3]; rate 0.0625 kg/ha,4.5
same,ORYSAT preemergence herbicidal rating,[3]; rate 0.1250 kg/ha,6.5
same,ORYSAT preemergence herbicidal rating,[3]; rate 0.2500 kg/ha,7.5
same,Herbicidal rating SAGPY,[4]; 0.0313 kg/ha,0.0
same,Herbicidal rating SAGPY,[4]; 0.0625 kg/ha,0.0
same,Herbicidal rating SAGPY,[4]; 0.1250 kg/ha,0.0
same,Herbicidal rating SAGPY,[4]; 0.2500 kg/ha,0.0
same,CASOB herbicidal rating,[5]; rate 0.0156 kg/ha,0.0
same,CASOB herbicidal rating,[5]; rate 0.0313 kg/ha,0.0
same,CASOB herbicidal rating,[5]; rate 0.0625 kg/ha,0.5
same,CASOB herbicidal rating,[5]; rate 0.1250 kg/ha,3.0
same,GLXMAW preemergence herbicidal rating,[6]; rate 0.0156 kg/ha,2.0
same,GLXMAW preemergence herbicidal rating,[6]; rate 0.0313 kg/ha,2.3
same,GLXMAW preemergence herbicidal rating,[6]; rate 0.0625 kg/ha,3.7
same,GLXMAW preemergence herbicidal rating,[6]; rate 0.1250 kg/ha,6.7
same,GLXMAW preemergence herbicidal rating,[6]; rate 0.2500 kg/ha,7.0
"Cn1c(C(F)(F)F)cc(=O)n(-c2cc(N=C3SCC(=O)N3CC(=O)OCC#N)c(Cl)cc2F)c1=O [Compound 109, 2-{{2-Chloro-5-[3,6-dihydro-3-methyl-2,6-dioxo-4-(trifluoromethyl)-1(2H)-pyrimidinyl]-4-fluorophenyl}imino}-4-oxo-3-thiazolidineacetic acid, ester with glycolonitrile]",Herbicidal rating MOOVA,[1]; [10],2.0
same,Herbicidal rating MOOVA,[1]; [7],4.0
same,Herbicidal rating MOOVA,[1]; [11],9.0
same,Herbicidal rating MOOVA,[1]; [12],9.0
same,Preemergence herbicidal rating TRZAWR,[2]; rate 0.0156 kg/ha,0.0
same,Preemergence herbicidal rating TRZAWR,[2]; rate 0.0313 kg/ha,1.0
same,Preemergence herbicidal rating TRZAWR,[2]; rate 0.0625 kg/ha,1.0
same,Preemergence herbicidal rating TRZAWR,[2]; rate 0.1250 kg/ha,6.0
same,Preemergence herbicidal rating TRZAWR,[2]; rate 0.2500 kg/ha,4.0
same,Preemergence herbicidal rating ORYSAT,[3]; rate 0.0156 kg/ha,0.0
same,Preemergence herbicidal rating ORYSAT,[3]; rate 0.0313 kg/ha,1.0
same,Preemergence herbicidal rating ORYSAT,[3]; rate 0.0625 kg/ha,2.0
same,Preemergence herbicidal rating ORYSAT,[3]; rate 0.1250 kg/ha,4.0
same,Preemergence herbicidal rating ORYSAT,[3]; rate 0.2500 kg/ha,5.0
same,Preemergence herbicidal rating ORYSAT,[3]; rate 0.5000 kg/ha,6.0
same,SAGPY herbicidal effect rating,[4]; 0.0313 kg/ha,4.5
same,SAGPY herbicidal effect rating,[4]; 0.0625 kg/ha,7.5
same,SAGPY herbicidal effect rating,[4]; 0.1250 kg/ha,9.0
same,SAGPY herbicidal effect rating,[4]; 0.2500 kg/ha,9.0
same,herbicidal rating CASOB,[5]; rate 0.0158 kg/ha,1.0
same,herbicidal rating CASOB,[5]; rate 0.0315 kg/ha,7.0
same,herbicidal rating CASOB,[5]; rate 0.0630 kg/ha,9.0
same,Preemergence herbicidal rating GLXMAW,[6]; rate 0.0156 kg/ha,1.5
same,Preemergence herbicidal rating GLXMAW,[6]; rate 0.0313 kg/ha,2.0
same,Preemergence herbicidal rating GLXMAW,[6]; rate 0.0625 kg/ha,5.0
same,Preemergence herbicidal rating GLXMAW,[6]; rate 0.1250 kg/ha,7.5
same,Preemergence herbicidal rating GLXMAW,[6]; rate 0.2500 kg/ha,9.0
same,Preemergence herbicidal rating GLXMAW,[6]; rate 0.5000 kg/ha,9.0
